Where two headings read alike, the source gives them in different places.
Assay: Pharmacokinetics (plasma and urine) of ascending multiple oral doses in healthy volunteers
Format: in vivo, human
Settings: for Intra-subject CV % of AUC(0-τ) / Intra-subject CV % of Cmax: ANOVA, data from Days 10 and 14; for Vd/F / half-life / AUC(0-inf) / Cmax / concentration at 24 h / Tmax / AUC / CL renal / CL renal at 14 days: both sexes, human, oral; for Vd/F: read-out: Vz/F; for Cmax: read-out: Cmax; for concentration at 24 h: read-out: Ctrough; for AUC: τ = 24 hours (N = 8), read-out: AUC(0-τ); for CL renal / CL renal at 14 days: urine, read-out: CLR (renal clearance of drug)
From the text: Subjects: Forty healthy male and female subjects between the ages of 20 and 50 were enrolled in the study. All subjects were in good health as determined by a medical history, physical examination, 12-lead ECG, serum biochemistry, hematology, urinalysis and virology. Subjects were not permitted to take any prescribed medication within 30 days or non-prescribed medication within 7 days of the first dose administration.
Study Design: This study was a randomized, double-blind, placebo-controlled, ascending-dose trial to evaluate the safety, tolerability and pharmacokinetics (PK) of multiple oral doses of Compound I. Subjects were enrolled into 1 of the 4 cohorts, 10 subjects per cohort (active:placebo=8:2). Subjects received a multiple oral dose of 25, 50, 100, or 200 mg unformulated Compound I in a capsule, or matching placebo, once daily (QD) for 14 days.
Assessments: Safety and tolerability were assessed by adverse event (AE) monitoring, clinical laboratory testing, vital sign measurement, 12-lead ECG measurement, concomitant medication assessment, and physical examination. Blood and urine samples were collected to assess the PK profile of Compound I and the S-cis isomer of Compound I. Blood samples (˜5 mL) for plasma PK analysis were collected in K2-EDTA vacutainer tubes to yield approximately 2 mL of plasma at each of the following time points: (i) Day 1: before dosing, and 0.25, 0.5, 1, 1.5, 2, 2.5, 3, 4, 6, 8, 10, 12, 16, and 24 hours after dosing; (ii) Day 3 to Day 9: before dosing; (iii) Day 10: before dosing, and 0.25, 0.5, 1, 1.5, 2, 2.5, 3, 4, 6, 8, 10, 12, and 16 hours after dosing; (iv) Day 11 to Day 13: before dosing; (v) Day 14: before dosing, and 0.25, 0.5, 1, 1.5, 2, 2.5, 3, 4, 6, 8, 10, 12, 16, 24, 48, 72, 96, 120, 144, and 168 hours after dosing. Urine samples for the PK analysis were collected as a single block at: (i) Day 1: before dosing (spot collection), 0 to 8, 8 to 16, and 16 to 24 hours after dosing; and (ii) Day 14: 0 to 8, 8 to 16, and 16 to 24 hours after dosing. Both plasma and urine concentrations of Compound I and its S-cis isomer were measured using validated liquid chromatography-tandem mass spectrometry (LC/MS/MS).
Data Analysis: Safety data were summarized using descriptive statistics by treatment. PK parameters for Compound I and its S-cis isomer were calculated using non-compartmental analysis using WinNonlin (Version 5.0.1 or greater; Pharsight Corporation, Mountain View, Calif.). Dose proportionality and dose independence were evaluated by visual inspection. Intra-subject variability was assessed using an ANOVA model using data from Days 10 and 14.

[1] = 25 mg QD, Day 1, urine (n = 8), geometric mean
[2] = 25 mg QD, Day 14, plasma (N = 8), geometric mean
[3] = 25 mg QD, Day 14, urine (n = 8), geometric mean
[4] = 50 mg QD, Day 1, urine (n = 8), geometric mean
[5] = 50 mg QD, Day 14, plasma (N = 8), geometric mean
[6] = 50 mg QD, Day 14, urine (n = 8), geometric mean
[7] = 100 mg QD, Day 1, urine (n = 8), geometric mean
[8] = 100 mg QD, Day 14, plasma (N = 8), geometric mean
[9] = 100 mg QD, Day 14, urine (n = 8), geometric mean
[10] = 200 mg QD, Day 1, urine (n = 8), geometric mean
[11] = 200 mg QD, Day 14, plasma (N = 8), geometric mean
[12] = 200 mg QD, Day 14, urine (n = 8), geometric mean
[13] = plasma, 25 mg, 25 mg QD, Day 1, plasma, healthy subjects (N = 8), geometric mean
[14] = plasma, 25 mg, 25 mg QD, Day 14, plasma, healthy subjects (N = 8), geometric mean
[15] = plasma, 50 mg, 50 mg QD, Day 1, plasma, healthy subjects (N = 8), geometric mean
[16] = plasma, 50 mg, 50 mg QD, Day 14, plasma, healthy subjects (N = 8), geometric mean
[17] = plasma, 100 mg, 100 mg QD, Day 1, plasma, healthy subjects (N = 8), geometric mean
[18] = plasma, 100 mg, 100 mg QD, Day 14, plasma, healthy subjects (N = 8), geometric mean
[19] = plasma, 200 mg, 200 mg QD, Day 1, plasma, healthy subjects (N = 8), geometric mean
[20] = plasma, 200 mg, 200 mg QD, Day 14, plasma, healthy subjects (N = 8), geometric mean

O[C@H]1CC[C@H](Nc2ncc3nc(Nc4c(F)cc(F)cc4F)n([C@H]4CCOC4)c3n2)CC1 [Compound I, 4-((9-((3S)-tetrahydro-3-furanyl)-8-((2,4,6-trifluorophenyl)amino)-9H-purin-2-yl)amino)-trans-cyclohexanol]
Ae (amount of drug excreted in urine) [1]: 1.3 mg
fe (percentage of dose excreted in urine) [1]: 5.2%
CL/F [2]: 95 mL/min
RA (ratio of accumulation) [2]: 1.9
Ae (amount of drug excreted in urine) [3]: 3.5 mg
fe (percentage of dose excreted in urine) [3]: 14.0%
Intra-subject CV % of AUC(0-τ) (25 mg QD): 7.0%
Intra-subject CV % of Cmax (25 mg QD): 10.2%
Ae (amount of drug excreted in urine) [4]: 3.0 mg
fe (percentage of dose excreted in urine) [4]: 5.9%
CL/F [5]: 85 mL/min
RA (ratio of accumulation) [5]: 2.2
Ae (amount of drug excreted in urine) [6]: 6.9 mg
fe (percentage of dose excreted in urine) [6]: 13.9%
Intra-subject CV % of AUC(0-τ) (50 mg QD): 8.4%
Intra-subject CV % of Cmax (50 mg QD): 5.7%
Ae (amount of drug excreted in urine) [7]: 5.3 mg
fe (percentage of dose excreted in urine) [7]: 5.3%
CL/F [8]: 130 mL/min
RA (ratio of accumulation) [8]: 1.8
Ae (amount of drug excreted in urine) [9]: 11.9 mg
fe (percentage of dose excreted in urine) [9]: 11.9%
Intra-subject CV % of AUC(0-τ) (100 mg QD): 15.7%
Intra-subject CV % of Cmax (100 mg QD): 23.7%
Ae (amount of drug excreted in urine) [10]: 5.0 mg
fe (percentage of dose excreted in urine) [10]: 2.5%
CL/F [11]: 146 mL/min
RA (ratio of accumulation) [11]: 1.5
Ae (amount of drug excreted in urine) [12]: 11.7 mg
fe (percentage of dose excreted in urine) [12]: 5.8%
Intra-subject CV % of AUC(0-τ) (200 mg QD): 14.0%
Intra-subject CV % of Cmax (200 mg QD): 18.3%
accumulation at steady state (Day 10 and Day 14, QD dosing): approximately 2 fold
intra-subject variability of AUCss,(0-τ) (Days 10 and 14): less than 20%
steady state reached (trough plasma concentrations) (QD dosing): 6 days
Vd/F [2]: 256 L
half-life (25 mg QD, Day 14, plasma (N = 8), geometric mean, read-out: t1/2 (converted)): 31 h
Vd/F [5]: 193 L
half-life (50 mg QD, Day 14, plasma (N = 8), geometric mean, read-out: t1/2 (converted)): 26 h
Vd/F [8]: 338 L
half-life (100 mg QD, Day 14, plasma (N = 8), geometric mean, read-out: t1/2 (converted)): 30 h
Vd/F [11]: 328 L
half-life (200 mg QD, Day 14, plasma (N = 8), geometric mean, read-out: t1/2 (converted)): 26 h
AUC(0-inf) (plasma, 25 mg, 25 mg QD, Day 1, plasma (N = 8), geometric mean): 4260 ng·h/mL
Cmax [13]: 212 ng/mL
concentration at 24 h [13]: 55 ng/mL
Tmax (plasma, 25 mg, 25 mg QD, Day 1, plasma, healthy subjects (N = 8), median, read-out: tmax): 2.3 h
AUC (plasma, 25 mg, 25 mg QD, Day 1, plasma, geometric mean): 2270 ng·h/mL
AUC(0-inf) (plasma, 25 mg, 25 mg QD, Day 14, plasma (N = 8), geometric mean): 10200 ng·h/mL
Cmax [14]: 328 ng/mL
concentration at 24 h [14]: 130 ng/mL
Tmax (plasma, 25 mg, 25 mg QD, Day 14, plasma, healthy subjects (N = 8), median, read-out: tmax): 2 h
AUC (plasma, 25 mg, 25 mg QD, Day 14, plasma, geometric mean): 4400 ng·h/mL
AUC(0-inf) (plasma, 50 mg, 50 mg QD, Day 1, plasma (N = 8), geometric mean): 7750 ng·h/mL
Cmax [15]: 406 ng/mL
concentration at 24 h [15]: 125 ng/mL
Tmax (plasma, 50 mg, 50 mg QD, Day 1, plasma, healthy subjects (N = 8), median, read-out: tmax): 2.3 h
AUC (plasma, 50 mg, 50 mg QD, Day 1, plasma, geometric mean): 4560 ng·h/mL
AUC(0-inf) (plasma, 50 mg, 50 mg QD, Day 14, plasma (N = 8), geometric mean): 21300 ng·h/mL
Cmax [16]: 740 ng/mL
concentration at 24 h [16]: 282 ng/mL
Tmax (plasma, 50 mg, 50 mg QD, Day 14, plasma, healthy subjects (N = 8), median, read-out: tmax): 2 h
AUC (plasma, 50 mg, 50 mg QD, Day 14, plasma, geometric mean): 9810 ng·h/mL
AUC(0-inf) (plasma, 100 mg, 100 mg QD, Day 1, plasma (N = 8), geometric mean): 12200 ng·h/mL
Cmax [17]: 637 ng/mL
concentration at 24 h [17]: 183 ng/mL
Tmax (plasma, 100 mg, 100 mg QD, Day 1, plasma, healthy subjects (N = 8), median, read-out: tmax): 2 h
AUC (plasma, 100 mg, 100 mg QD, Day 1, plasma, geometric mean): 7300 ng·h/mL
AUC(0-inf) (plasma, 100 mg, 100 mg QD, Day 14, plasma (N = 8), geometric mean): 31600 ng·h/mL
Cmax [18]: 880 ng/mL
concentration at 24 h [18]: 400 ng/mL
Tmax (plasma, 100 mg, 100 mg QD, Day 14, plasma, healthy subjects (N = 8), median, read-out: tmax): 1.8 h
AUC (plasma, 100 mg, 100 mg QD, Day 14, plasma, geometric mean): 12800 ng·h/mL
AUC(0-inf) (plasma, 200 mg, 200 mg QD, Day 1, plasma (N = 8), geometric mean): 27000 ng·h/mL
Cmax [19]: 1440 ng/mL
concentration at 24 h [19]: 375 ng/mL
Tmax (plasma, 200 mg, 200 mg QD, Day 1, plasma, healthy subjects (N = 8), median, read-out: tmax): 1.8 h
AUC (plasma, 200 mg, 200 mg QD, Day 1, plasma, geometric mean): 15100 ng·h/mL
AUC(0-inf) (plasma, 200 mg, 200 mg QD, Day 14, plasma (N = 8), geometric mean): 48400 ng·h/mL
Cmax [20]: 1740 ng/mL
concentration at 24 h [20]: 643 ng/mL
Tmax (plasma, 200 mg, 200 mg QD, Day 14, plasma, healthy subjects (N = 8), median, read-out: tmax): 1.8 h
AUC (plasma, 200 mg, 200 mg QD, Day 14, plasma, geometric mean): 22800 ng·h/mL
half-life (plasma, 25-200 mg QD for 14 days, read-out: mean terminal half-life (t1/2)): 25 to 31 h
Tmax (plasma, 25-200 mg QD for 14 days, read-out: median tmax): 1 to 2 h
CL renal (25 mg, 25 mg QD, Day 1, urine (n = 8), geometric mean): 9.5 mL/min
CL renal at 14 days (25 mg, 25 mg QD, Day 14, urine (n = 8), geometric mean): 13.3 mL/min
CL renal (50 mg, 50 mg QD, Day 1, urine (n = 8), geometric mean): 10.9 mL/min
CL renal (50 mg, 50 mg QD, Day 14, urine (n = 8), geometric mean): 11.8 mL/min
CL renal (100 mg, 100 mg QD, Day 1, urine (n = 8), geometric mean): 12 mL/min
CL renal (100 mg, 100 mg QD, Day 14, urine (n = 8), geometric mean): 15.4 mL/min
CL renal (200 mg, 200 mg QD, Day 1, urine (n = 8), geometric mean): 5.5 mL/min
CL renal at 14 days (200 mg, 200 mg QD, Day 14, urine (n = 8), geometric mean): 8.5 mL/min

Reference: patent US8603527B2, “Pharmaceutical formulations of a substituted diaminopurine” (Signal Pharmaceuticals, LLC, priority 2010, dated 2013)
